# Patent US20260224512A1, “USE OF 5-METHOXY-2-AMINOINDAN ("MEAI") IN METHODS FOR TREATING METABOLIC SYNDROME” (Clearmind Labs Corp., priority 2022, published 2026)
# What was measured:
# C57BL/6 mice [1] = test: Acute single-dose tolerability of MEAI; format: in vivo
# Description: (§1) Male 6-week-old C57BL/6 mice (Envigo, Israel) were maintained under a 12-h light/dark cycle and fed ad libitum. A total of 32 animals were divided into four experimental groups (N=8 mice per group) receiving single doses of 40, 60, or 100 mg/kg of MEAI or vehicle (sterile water), which was administered via oral gavage two hours prior to the dark phase. The animals were monitored for 48 hours post-dose for drug tolerability, food and water intakes as well as activity and metabolic parameters. At the end of the experiment, the animals were euthanized, and tissues (brain, liver, fat, and kidney) and blood were collected and stored frozen for future analyses. To generate diet-induced obesity, C57BI6/J mice were fed either a high-fat diet (HFD) (60% of calories from fat, 20% from protein, and 20% from carbohydrates; Research Diet, D12492) or a standard laboratory diet (STD, 14% fat, 24% protein, 62% carbohydrates; NIH-31 rodent diet) for 18 weeks.
# C57BL/6 mice [2] = test: Acute multi-parameter metabolic assessment (food and water intake, respirometry); format: in vivo
# Description: as §1
# (§2) Multi-parameter metabolic assessment. The metabolic profiles and food and water intakes of the mice were assessed by using the Promethion High-Definition Behavioral Phenotyping System (Sable Instruments, Inc., Las Vegas, NV, USA). Data acquisition and instrument control were performed using MetaScreen software version 2.2.18.0, and the obtained raw data were processed using ExpeData version 1.8.4 using an analysis script detailing all aspects of data transformation. Mice with free access to food and water were subjected to a standard 12 h light/12 h dark cycle, which consisted of a 48 h acclimation period followed by 24 h of sampling. Respiratory gases were measured by using the GA-3 gas analyzer (Sable Systems, Inc., Las Vegas, NV, USA) using a pull-mode, negative pressure system. Air flow was measured and controlled by FR-8 (Sable Systems, Inc., Las Vegas, NV, USA), with a set flow rate of 2000 mL/min. Water vapor was continuously measured and its dilution effect on O2 and CO2 was mathematically compensated. Respiratory exchange rate (RER) was calculated as the ratio of CO2 produced (VCO2) to O2 consumed (VO2) using Equation (1): […]
# (§3) Total energy expenditure (TEE) was calculated using VO2 and RER, according to Equation (2): […]
# (§4) Fat oxidation (FO) and carbohydrate oxidation (CHO) were calculated using VO2 and VCO2 based on Equations (3) and (4), respectively: […]
# C57BL/6 mice [3] = test: Acute wheel running and locomotive activity; format: in vivo
# Description: as §1
# (§5) Wheel running and locomotive activity. The assessment of wheel running and locomotor activity was performed using the Promethion High-Definition Behavioral Phenotyping System (Sable Instruments, Inc., Las Vegas, NV, USA). Wheel revolutions were measured with a monitor that recorded voluntary wheel running activity, and locomotor activity was quantified using disruptions of infrared XYZ beam arrays, with a beam spacing of 0.25 cm.
# C57BL/6 mice [4] = test: Sucrose preference test; format: in vivo; settings: single dose 40 mg/kg
# Description: Sucrose Preference Test. Thirteen-week-old male C57BL/6 mice maintained on a STD and housed individually were habituated to two water bottles in their home cage for 48 h prior to the test. Baseline intake was measured by weighing the bottles. On the test day (Day 1), 2 h before the onset of the dark phase, fresh water and a 1.5% sucrose solution were added to the bottles, and mice were subsequently treated orally with MEAI (40 mg/kg, N=8) or sterile water (N=8). The mice were allowed to drink from either bottle freely for 24 h, after which the bottles were weighed to measure consumption. The study was repeated for an additional day (Day 2), with the bottles switched in position (in the cage) to account for side preference. The sucrose and water intake over the two days were averaged, and the sucrose preference index was calculated as the average consumed sucrose solution divided by the average volume of total consumed liquid (average water plus average sucrose solution).
# DIO mouse model [5] = test: Chronic MEAI in HFD-induced obesity (DIO) model: body weight and body composition; format: in vivo, mice; settings: 28 days
# Description: (§6) Effect of MEAI on Obesity. Male C57BL/6 mice were used to establish DIO by feeding them a high-fat diet (HFD; 60% Kcal fat, 20% Kcal protein, and 20% Kcal carbohydrates; Research Diet, D12492) for 18 weeks. After this period, mice were treated with either vehicle (sterile water, N=8) or MEAI (N=11) daily for 28 days by gavage at a dose of 40 mg/kg/day. Age-matched control mice (N=10) on a standard diet (STD; 14% Kcal fat, 24% Kcal protein, 62% Kcal carbohydrates; NIH-31 rodent diet) and received vehicle daily. The body weight of all mice was monitored daily, and total body fat and lean mass were determined by EchoMRI-100H™ (Echo Medical Systems LLC, Houston, TX, USA). On Day 29, at the end of the experimental period, mice were euthanized by a cervical dislocation under anesthesia. The kidneys, brain, liver, and fat pads were removed and weighed, and samples were either snap-frozen or fixed in buffered 4% formalin. Trunk blood was collected to determine biochemical parameters.
# DIO mouse model [6] = test: Chronic MEAI in DIO model: food consumption and energy metabolism; format: in vivo, mice; settings: 40 mg/kg/day
# Description: as §6, §2, §3, §4
# DIO mouse model [7] = test: Chronic MEAI in DIO model: wheel running and locomotive activity; format: in vivo, mice; settings: 40 mg/kg/day
# Description: as §6, §5
# DIO mouse model [8] = test: Glucose tolerance test (ipGTT), insulin tolerance test (ipITT) and glycemic parameters in DIO mice; format: in vivo; settings: 40 mg/kg/day
# Description: as §6
# Glucose Tolerance Test (ipGTT) and the Insulin Tolerance Test (ipITT). On day 25 of the experiment, mice were subjected to an overnight fasting and then injected with glucose (1.5 g/kg i.p.) on the following day (day 26). Blood glucose levels were determined at 0, 15, 30, 45, 60, 90, and 120 min after injection using the Contour® glucometer (Bayer, Pittsburgh, PA, USA). The mice were then fasted for 6 h on the next day (day 27) before being administered insulin (0.75 U/kg, i.p.; Actrapid vials, Novo Nordisk A/S, Bagsværd, Denmark). Blood glucose levels were determined at the same intervals as described above. To assess insulin resistance, the homeostasis model assessment insulin resistance (HOMA-IR) was calculated as fasting serum insulin ([μU/mL]×fasting plasma glucose [mmol/L]/22.5). The relative insulin sensitivity index (ISI) was calculated as 1/(glucose×insulin)×1000, with glucose expressed as mg/dl and insulin as mU/L.
# (§7) Blood and urine biochemistry. Serum levels of alanine aminotransferase (ALT), aspartate aminotransferase (AST), alkaline phosphatase (ALP), cholesterol, triglycerides, high-density lipoprotein (HDL), and low-density lipoprotein (LDL) were determined by using the Cobas C-111 chemistry analyzer (Roche, Switzerland). Blood urea nitrogen (BUN) was calculated based on serum urea levels as follows: BUN (mg/dL)=Urea (mg/dL)/2.1428. Fasting blood glucose was measured using the Contour® glucometer (Bayer, Pittsburgh, PA). Serum insulin was determined using an Ultra-Sensitive Mouse Insulin ELISA kit (Crystal Chem, Inc., Elk Grove Village, IL, USA).
# DIO mouse model [9] = test: Blood biochemistry in DIO mice; format: in vivo; settings: 40 mg/kg/day
# Description: as §6, §7
# DIO mouse model [10] = test: Kidney and liver weight in DIO mice; format: in vivo; settings: 40 mg/kg/day, HFD-fed mice
# Description: as §6
# DIO mouse model [11] = test: Hepatic triglyceride and cholesterol content, Oil Red O staining in DIO mice; format: in vivo; settings: 40 mg/kg/day
# Description: as §6
# Hepatic Triglyceride and Cholesterol Content. Liver tissue was extracted as described in (Tam et al., 2012), and its cholesterol and triglycerides contents were determined using a Cobas C-111 chemistry analyzer (Roche, Switzerland).
# Histopathology. First, 5 μm paraffin-embedded liver sections from 5 animals per group were stained with hematoxylin-eosin staining. Liver images were captured using a Zeiss Axio Scope A1 light microscope (Carl Zeiss AG, Jena, Germany equipped with a Zeiss AxioCam ICc5 color camera. Ten random 40× fields of view were taken from each animal to obtained representative images.
# Oil Red O staining. Liver cryosections (8 μm) were stained with Oil Red O (Cat #ab150678; Abcam) following the manufacturer's protocol. Images were acquired as described above. For quantitative analysis of Oil Red O staining, the area of lipid droplets in the liver cryosections was measured using the ImageJ software.
# [12] = single dose 40, 60, 100 mg/kg, 24-hour period
# [13] = single dose, 60 and 100 mg doses
# [14] = single dose, 40 mg/kg and above
# [15] = compared to HFD vehicle-treated group
# [16] = in comparison with HFD-vehicle group
# [17] = compared to HFD vehicle control
compound,measurement,setting,value
"COc1ccc2c(c1)CC(N)C2 (stereo not shown) [MEAI, 5-methoxy-2-aminoindan]",deaths after administration,"C57BL/6 mice [1]; single oral dose 100 mg/kg, within a few hours, with stress of metabolic testing",two subjects in the 100 mg/kg group died
same,"drug tolerability, changes in behavior","C57BL/6 mice [1]; single oral dose 40 and 60 mg/kg, lean mice","well-tolerated, with no observable changes in behavior"
same,carbohydrate oxidation (CHO) rate,C57BL/6 mice [2]; [12],corresponding elevations
same,fat oxidation (FO) rate,C57BL/6 mice [2]; [12],corresponding elevations
same,total energy expenditure (TEE),C57BL/6 mice [2]; [12],significant dose-dependent increases
same,rate of carbon dioxide emission (VCO2),C57BL/6 mice [2]; [13],higher rates
same,rate of oxygen consumption (VO2),C57BL/6 mice [2]; [13],higher rates
same,respiratory exchange rate (RER),"C57BL/6 mice [2]; single dose, light phase, 60 and 100 mg doses",increase
same,water consumption,"C57BL/6 mice [2]; single oral dose 40, 60 or 100 mg/kg",no notable changes
same,feeding patterns (food intake),"C57BL/6 mice [2]; single oral dose 40, 60 or 100 mg/kg, dark and light phases, vs vehicle",did not reach statistical significance
same,voluntary wheel running,C57BL/6 mice [3]; single dose 100 mg/kg,significant suppression
same,total number of beam breaks (ambulatory and fine movements),"C57BL/6 mice [3]; single dose 40, 60, 100 mg/kg",no significant changes
same,voluntary wheel running,C57BL/6 mice [3]; single dose 40 and 60 mg/kg,minor elevations
same,directed voluntary activity (pedestrian locomotion),C57BL/6 mice [3]; [14],significant and dose-dependent increase
same,pedestrian speed,C57BL/6 mice [3]; [14],significant and dose-dependent increase
same,total pedometer count,"C57BL/6 mice [3]; single dose, all doses tested (40, 60, 100 mg/kg)",increase
same,water intake levels,C57BL/6 mice [4],without any accompanying decrease
same,acute preference for sucrose solution,"C57BL/6 mice [4]; 1.5% sucrose vs water, most evident in initial 24-hour period",significantly reduced
same,preference for sucrose solution,C57BL/6 mice [4]; subsequent 24-hour period,slight reduction
same,body weight of HFD-fed mice,DIO mouse model [5]; 40 mg/kg/day by gavage,significantly reduced
same,decrease in total body weight compared to the obese vehicle-treated group,"DIO mouse model [5]; 40 mg/kg/day by gavage, HFD-fed mice",~15%
same,adiposity associated with obesity,"DIO mouse model [5]; 40 mg/kg/day, HFD-fed mice",reduced
same,"lean body mass, lean body mass ratio, net lean mass","DIO mouse model [5]; 40 mg/kg/day, HFD-fed mice",preserved
same,overall fat mass,"DIO mouse model [5]; 40 mg/kg/day, HFD-fed mice",reducing
same,carbohydrate oxidation (CHO),DIO mouse model [6]; HFD-fed mice,no effect of the drug itself
same,respiratory exchange rate (RER),"DIO mouse model [6]; HFD-fed mice, in comparison to STD vehicle group",slightly decreased
same,food intake per meal,"DIO mouse model [6]; HFD-fed mice, both MEAI and vehicle HFD groups",reduction in food intake per meal
same,carbon dioxide production,DIO mouse model [6]; [15],slightly increased
same,oxygen consumption,DIO mouse model [6]; [15],slightly increased
same,energy expenditure,"DIO mouse model [6]; compared to both HFD and STD vehicle groups, light and dark phases",significant increase
same,overall rate of fat oxidation (FO),DIO mouse model [6]; compared to both HFD- and STD-vehicle groups,increase
same,water intake,DIO mouse model [6]; obese mice,did not have any effect
same,"pedestrian locomotive activity, speed and total distance relative to STD-vehicle group (over-stimulatory effect)",DIO mouse model [7]; HFD-fed mice,did not surpass the levels of the STD-vehicle treated group
same,time spent engaging in various activities within the cage,DIO mouse model [7]; HFD-fed mice,preference for voluntary activities
same,voluntary wheel running,DIO mouse model [7]; HFD-fed mice,increased capability
same,voluntary actions such as pedestrian activity and grooming (ambulatory activity),"DIO mouse model [7]; HFD-fed mice, throughout the day, more prominent in dark phase",significantly increased
same,pedestrian locomotion speed,DIO mouse model [7]; [16],increased
same,pedestrian locomotive activity,DIO mouse model [7]; [16],increased
same,total distance travelled,DIO mouse model [7]; [16],increased
same,HOMA-IR,DIO mouse model [8],beneficial effects
same,fasting blood glucose,DIO mouse model [8],reduced
same,glucose metabolism (glucose and insulin tolerance tests),DIO mouse model [8],significant improvement
same,insulin levels,DIO mouse model [8],reduced
same,insulin sensitivity (insulin tolerance test),DIO mouse model [8],normalized
same,insulin sensitivity index (ISI),DIO mouse model [8],beneficial effects
same,HDL-to-LDL ratio,DIO mouse model [9]; HFD-fed mice,increased
same,blood urea nitrogen (BUN) levels,DIO mouse model [9]; HFD-fed mice,slight improvements
same,cholesterol levels,"DIO mouse model [9]; HFD-fed mice, not statistically significant",tendency towards decreased
same,circulating triglyceride levels,DIO mouse model [9]; any of the study groups,no significant alterations
same,HDL levels,DIO mouse model [9]; compared to HFD vehicle group,without notable changes
same,LDL levels,DIO mouse model [9]; compared to HFD vehicle group,significantly reduced
same,ALP levels,DIO mouse model [9]; compared to HFD-vehicle group,significantly reduced
same,ALT levels,DIO mouse model [9]; compared to HFD-vehicle group,did not significantly alter
same,AST levels,DIO mouse model [9]; compared to HFD-vehicle group,did not significantly alter
same,kidney-to-body weight ratio,DIO mouse model [10],normalized
same,liver weight,DIO mouse model [10],reduced
same,liver weight to body weight ratio,DIO mouse model [10],normalized
same,hepatic cholesterol levels,DIO mouse model [11]; [17],trend toward a reduction
same,liver triglycerides,DIO mouse model [11]; [17],significant reductions
same,Oil Red O staining,DIO mouse model [11]; [15],decrease
same,lipid vacuole numbers,DIO mouse model [11]; [15],reduced
